In EP1202746B1, “NSAID AND EGFR KINASE INHIBITOR CONTAINING COMPOSITION FOR THE TREATMENT OR INHIBITION OF COLONIC POLYPS AND COLORECTAL CANCER” (Wyeth Holdings Corporation, priority 1999, dated 2001):

Test system: intestinal polyps (adenomas)
Test: Min mouse intestinal polyp test procedure emulating familial adenomatous polyps (FAP); polyps counted on day 61
Assay type: in vivo, Min mouse (C57BL/6J-Min/+)
Description: The procedure described below emulates familial adenomatous polyps (FAP) in humans using the Min mouse (C57BL/6J-Min/+), which is a strain which has […] of the APC gene. These animals develop multiple intestinal polyps (adenomas) that ultimately progress to form adenocarcinomas. The polyps that develop in Min mice express EGFR and have activated COX-2.
Test animals were divided into four treatment groups: Group I, control; Group II, N-[4-[(3-bromophenyl)amino]-6-quinazolinyl]-2-butynamide; Group III, sulindac; and Group IV, combination of sulindac and N-[4-[(3-bromophenyl)amino]-6-quinazolinyl]-2-butynamide (hereinafter referred to as the NSAID/EGFR kinase inhibitor combination). The test compound was blended with a standard murine chow and animals were given ad libitum access to the food, in quantities corresponding to the following approximate daily dosages: Group II - 40 mg/kg/day N-[4-[(3-bromophenyl)amino]-6-quinazolinyl]-2-butynamide; […]; and Group IV - 40 mg/kg/day N-[4-[(3-bromophenyl)amino]-6-quinazolinyl]-2-butynamide and 20 mg/kg/day sulindac. The animals were treated for 60 days. The food was weighed once per week to determine consumption, and the animals also weighed weekly. On day 61, the animals were euthanized with CO2 inhalation, and the entire intestinal tract from stomach to anus was removed. The intestinal tract was injected with Bouins fixative, and allowed to fix for several days. The intestinal tracts were then opened and the number of polyps counted. Statistical analysis was performed using the Student's t-Test; a p value of ≤ 0.05 is considered statistically significant.
The animals were treated for 60 days. The food was weighed once per week to determine consumption, and the animals also weighed weekly. On day 61, the animals were euthanized with CO2 inhalation, and the entire intestinal tract from stomach to anus was removed. The intestinal tract was injected with Bouins fixative, and allowed to fix for several days. The intestinal tracts were then opened and the number of polyps counted. Statistical analysis was performed using the Student's t-Test; a p value of ≤ 0.05 is considered statistically significant.

## CCOc1cc2ncc(C#N)c(Nc3ccc(F)c(Cl)c3)c2cc1NC(=O)C=CCN(C)C [4-dimethylamino-but-2-enoic acid [4-(3-chloro-4-fluoro-phenylamino)-3-cyano-7-ethoxy-quinolin-6-yl]-amide]
Third run, alone, 20 mg/kg, 60 days, versus control
  reduced polyp numbers: 87%

## CC#CC(=O)Nc1ccc2ncnc(Nc3cccc(Br)c3)c2c1 [N-[4-[(3-bromophenyl)amino]-6-quinazolinyl]-2-butynamide]
Group II: 40 mg/kg/day in chow, 60 days, control Group I 32.3 ± 20.7
  Number of Polyps: 15.6 ± 10.6

## CC1=C(CC(=O)O)c2cc(F)ccc2/C1=C\c1ccc([S+](C)[O-])cc1 (centres unmarked) [sulindac]
Group III: 20 mg/kg/day sulindac in chow, 60 days, control Group I 32.3 ± 20.7
  Number of Polyps: 10.0 ± 6.6
Third run, Group III: 5 mg/kg/day sulindac in chow, 60 days, control Group I 19.5 ± 14.1
  Number of Polyps: 20.6 ± 11.8
Third run, sulindac alone at the 5mg/kg dose
  polyp numbers (result in words): did not reduce polyp numbers at all
